PubChem BioAssay AID1963869 (Molecular Pharmacology Branch, DTP, NCI, 2024)

Test system: KRAS patient-derived spheroids with HUVEC/MSC, viability
Test: Anticancer human tumor 323965-272-R-J2-PDC patient-derived pancreatic carcinoma cell line growth inhibition [KRAS2]
Conditions: for IC50: curve of first compound; for viability, T/C: stronger effect = lower value
Outline: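 KRAS-mutant tumor cells were grown as spheroids with HUVEC endothelial cells and human MSCs as stroma. Targeted agents were tested alone and with KRAS pathway inhibitors. Doses started at or near clinical Cmax, or 10 microM, descending half-log.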

[1] = second compound 0.0316 µM, first compound 0.0316 µM
[2] = second compound 0.0316 µM, first compound 0.1 µM
[3] = second compound 0.0316 µM, first compound 0.316 µM
[4] = second compound 0.0316 µM, first compound 1 µM
[5] = second compound 0.0316 µM, first compound 3.16 µM
[6] = second compound 0.0316 µM, first compound 10 µM
[7] = second compound 0.1 µM, first compound 0.0316 µM
[8] = second compound 0.1 µM, first compound 0.1 µM
[9] = second compound 0.1 µM, first compound 0.316 µM
[10] = second compound 0.1 µM, first compound 1 µM
[11] = second compound 0.1 µM, first compound 3.16 µM
[12] = second compound 0.1 µM, first compound 10 µM
[13] = second compound 0.316 µM, first compound 0.0316 µM
[14] = second compound 0.316 µM, first compound 0.1 µM
[15] = second compound 0.316 µM, first compound 0.316 µM
[16] = second compound 0.316 µM, first compound 1 µM
[17] = second compound 0.316 µM, first compound 3.16 µM
[18] = second compound 0.316 µM, first compound 10 µM
[19] = second compound 1 µM, first compound 0.0316 µM
[20] = second compound 1 µM, first compound 0.1 µM
[21] = second compound 1 µM, first compound 0.316 µM
[22] = second compound 1 µM, first compound 1 µM
[23] = second compound 1 µM, first compound 3.16 µM
[24] = second compound 1 µM, first compound 10 µM
[25] = second compound 3.16 µM, first compound 0.0316 µM
[26] = second compound 3.16 µM, first compound 0.1 µM
[27] = second compound 3.16 µM, first compound 0.316 µM
[28] = second compound 3.16 µM, first compound 1 µM
[29] = second compound 3.16 µM, first compound 3.16 µM
[30] = second compound 3.16 µM, first compound 10 µM
[31] = second compound 0.0316 µM, first compound 0.000316 µM
[32] = second compound 0.0316 µM, first compound 0.001 µM
[33] = second compound 0.0316 µM, first compound 0.00316 µM
[34] = second compound 0.0316 µM, first compound 0.01 µM
[35] = second compound 0.1 µM, first compound 0.000316 µM
[36] = second compound 0.1 µM, first compound 0.001 µM
[37] = second compound 0.1 µM, first compound 0.00316 µM
[38] = second compound 0.1 µM, first compound 0.01 µM
[39] = second compound 0.316 µM, first compound 0.000316 µM
[40] = second compound 0.316 µM, first compound 0.001 µM
[41] = second compound 0.316 µM, first compound 0.00316 µM
[42] = second compound 0.316 µM, first compound 0.01 µM
[43] = second compound 1 µM, first compound 0.000316 µM
[44] = second compound 1 µM, first compound 0.001 µM
[45] = second compound 1 µM, first compound 0.00316 µM
[46] = second compound 1 µM, first compound 0.01 µM
[47] = second compound 3.16 µM, first compound 0.000316 µM
[48] = second compound 3.16 µM, first compound 0.001 µM
[49] = second compound 3.16 µM, first compound 0.00316 µM
[50] = second compound 3.16 µM, first compound 0.01 µM
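Note: spheroids exposed to agents for 7 days.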
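Throughout, for viability, T/C: 100% = DMSO vehicle control viability.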

Row | Structure (SMILES) | IC50 (second compound 0.0316 µM) [nM] | IC50 (second compound 0.1 µM) [nM] | IC50 (second compound 0.316 µM) [nM] | IC50 (second compound 1 µM) [nM] | IC50 (second compound 3.16 µM) [nM] | viability, T/C [1] [%] | viability, T/C [2] [%] | viability, T/C [3] [%] | viability, T/C [4] [%] | viability, T/C [7] [%] | viability, T/C [8] [%] | viability, T/C [9] [%] | viability, T/C [10] [%] | viability, T/C [13] [%] | viability, T/C [14] [%] | viability, T/C [15] [%] | viability, T/C [19] [%] | viability, T/C [20] [%] | viability, T/C [25] [%] | viability, T/C [26] [%] | further results
1 | CC(C)NCC(C(=O)N1CCN(c2ncnc3c2C(C)CC3O)CC1)c1ccc(Cl)cc1 (stereo not given) + C=CC(=O)N1CCN(c2nc(OCC3CCCN3C)nc3c2CCN(c2cccc4cccc(C)c24)C3)CC1CC#N | 489 | 251 | 132 | 118 | < 31.6 | 64.4 | 62.4 | 54.3 | 42.2 | 64.5 | 54.9 | 50.2 | 39.2 | 58.8 | 50.6 | 44.1 | 57.7 | 53.6 | 10.2 | 6.16 | viability, T/C [5]: 35.7%; viability, T/C [6]: 29.8%; viability, T/C [11]: 30.8%; viability, T/C [12]: 29.1%; viability, T/C [16]: 31.8%; viability, T/C [17]: 26.2%; viability, T/C [18]: 26.3%; viability, T/C [21]: 38.6%; viability, T/C [22]: 33.4%; viability, T/C [23]: 26.4%; viability, T/C [24]: 23.1%; viability, T/C [27]: 5.23%; viability, T/C [28]: 4.82%; viability, T/C [29]: 3.02%; viability, T/C [30]: 1.82%
2 | CC(C)n1nc(-c2ccc3oc(N)nc3c2)c2c(N)ncnc21 + C=CC(=O)N1CCN(c2nc(OCC3CCCN3C)nc3c2CCN(c2cccc4cccc(C)c24)C3)CC1CC#N | 0.596 | 0.419 | < 0.316 | < 0.316 | < 0.316 | 17.2 | 14.5 |  |  | 16.5 | 13.5 |  |  | 14.8 | 12.1 |  | 13.9 | 11.1 | 5.8 | 4.1 | viability, T/C [31]: 53%; viability, T/C [32]: 49.6%; viability, T/C [33]: 30.5%; viability, T/C [34]: 26%; viability, T/C [35]: 52%; viability, T/C [36]: 43.7%; viability, T/C [37]: 30.9%; viability, T/C [38]: 21.1%; viability, T/C [39]: 45.9%; viability, T/C [40]: 37.3%; viability, T/C [41]: 27.6%; viability, T/C [42]: 18.7%; viability, T/C [43]: 49.9%; viability, T/C [44]: 37.7%; viability, T/C [45]: 28.3%; viability, T/C [46]: 17.6%; viability, T/C [47]: 28.4%; viability, T/C [48]: 9.51%; viability, T/C [49]: 15.1%; viability, T/C [50]: 2.78%
3 | CC1(C)CCC(CN2CCN(c3ccc(C(=O)NS(=O)(=O)c4ccc(NCC5CCOCC5)c([N+](=O)[O-])c4)c(Oc4cnc5[nH]ccc5c4)c3)CC2)=C(c2ccc(Cl)cc2)C1 + C=CC(=O)N1CCN(c2nc(OCC3CCCN3C)nc3c2CCN(c2cccc4cccc(C)c24)C3)CC1CC#N | 1380 | 1360 | 1120 | 1030 | < 31.6 | 65.2 | 69.2 | 67.2 | 66.6 | 68.2 | 67.1 | 60.1 | 67.6 | 59.6 | 61.6 | 61.6 | 62.1 | 61.9 | 7.81 | 6.48 | viability, T/C [5]: 6.91%; viability, T/C [6]: 1.68%; viability, T/C [11]: 7.16%; viability, T/C [12]: 1.62%; viability, T/C [16]: 54.9%; viability, T/C [17]: 3.92%; viability, T/C [18]: 2.34%; viability, T/C [21]: 55.6%; viability, T/C [22]: 51.2%; viability, T/C [23]: 2.41%; viability, T/C [24]: 0.74%; viability, T/C [27]: 3.08%; viability, T/C [28]: 0.59%; viability, T/C [29]: 0.43%; viability, T/C [30]: 0.18%
4 | CCN1CCN(Cc2ccc(Nc3ncc(F)c(-c4cc(F)c5nc(C)n(C(C)C)c5c4)n3)nc2)CC1 + C=CC(=O)N1CCN(c2nc(OCC3CCCN3C)nc3c2CCN(c2cccc4cccc(C)c24)C3)CC1CC#N | 8.21 | 4.98 | < 3.16 | 6.25 | < 3.16 | 39.1 | 38.6 | 37.2 | 45.5 | 39.1 | 31.2 | 31.7 | 44 | 33.8 | 32.8 | 31.9 | 36.6 | 28.8 | 3.68 | 2.57 | viability, T/C [33]: 60.6%; viability, T/C [34]: 51.1%; viability, T/C [37]: 53.6%; viability, T/C [38]: 46%; viability, T/C [41]: 45%; viability, T/C [42]: 44.8%; viability, T/C [16]: 38.8%; viability, T/C [45]: 58.6%; viability, T/C [46]: 45.9%; viability, T/C [21]: 30.3%; viability, T/C [22]: 36.1%; viability, T/C [49]: 3%; viability, T/C [50]: 4.98%; viability, T/C [27]: 3.48%; viability, T/C [28]: 0.89%
5 | CCNC(=O)CC1N=C(c2ccc(Cl)cc2)c2cc(OC)ccc2-n2c(C)nnc21 (stereo not given) + C=CC(=O)N1CCN(c2nc(OCC3CCCN3C)nc3c2CCN(c2cccc4cccc(C)c24)C3)CC1CC#N | 210 | 101 | 240 | 111 | < 31.6 | 75.3 | 59.5 | 46.3 | 30.4 | 63.1 | 51.1 | 35.6 | 31.9 | 89.5 | 91.3 | 37.3 | 60.4 | 50.6 | 10.5 | 6.25 | viability, T/C [5]: 26.4%; viability, T/C [6]: 27.2%; viability, T/C [11]: 26.3%; viability, T/C [12]: 24.2%; viability, T/C [16]: 29.7%; viability, T/C [17]: 24.7%; viability, T/C [18]: 24.1%; viability, T/C [21]: 38.5%; viability, T/C [22]: 27%; viability, T/C [23]: 22.6%; viability, T/C [24]: 22.5%; viability, T/C [27]: 3.72%; viability, T/C [28]: 0.16%; viability, T/C [29]: 1.28%; viability, T/C [30]: 0.88%
6 | Cn1ncnc1[C@H]1c2n[nH]c(=O)c3cc(F)cc(c23)N[C@@H]1c1ccc(F)cc1 + C=CC(=O)N1CCN(c2nc(OCC3CCCN3C)nc3c2CCN(c2cccc4cccc(C)c24)C3)CC1CC#N | > 100 | > 100 | > 100 | > 100 | < 0.316 | 68.7 | 64 |  |  | 60.5 | 53.8 |  |  | 56.1 | 57.7 |  | 52.8 | 57 | 12.4 | 11.6 | viability, T/C [31]: 75.5%; viability, T/C [32]: 83.2%; viability, T/C [33]: 73.7%; viability, T/C [34]: 71.2%; viability, T/C [35]: 71.2%; viability, T/C [36]: 62.3%; viability, T/C [37]: 62%; viability, T/C [38]: 61.5%; viability, T/C [39]: 64.2%; viability, T/C [40]: 63.8%; viability, T/C [41]: 62.7%; viability, T/C [42]: 60.4%; viability, T/C [43]: 58.6%; viability, T/C [44]: 65.5%; viability, T/C [45]: 59.6%; viability, T/C [46]: 62.6%; viability, T/C [47]: 12.5%; viability, T/C [48]: 10.9%; viability, T/C [49]: 13.9%; viability, T/C [50]: 11.5%
